Laboratory results reported in patent publication US20230146699A1, “EDTA System for Reducing Browning in Mycohide Materials” (MycoWorks, Inc., priority 2021, published 2023).

Tested on: mycohide sheets (mycelium crusts); browning by polyphenol oxidases (PPOs)
Assay: Visual assessment of browning reduction in mycohide (mycelium) sheets/crusts treated with chelating agent
Conditions: for reduction of surface browning (FIGS. 5-6): 1 mM and 5 mM chelator, plasticized mycohide, dried samples, 15% ALE fatliquor dip, EDTA compared with EGTA
Method: In some embodiments, full sized cotton sheets are treated as defined by four groups: 1) plasticization without any treatment, 2) EDTA treatment only after harvesting sheets (5 mM EDTA 14 in water added on top of mycelia layer after harvest and gently massaged; then plasticize this section in glycerin/water solution), 3) EDTA treatment only during plasticization (plasticize in glycerin/water solution 40%/60% glycerin to water with EDTA at 5 mM), and/or 4) EDTA treatment on both harvested sheets and during plasticization (see above for conditions).

Row | Structure (SMILES) | reduction of browning, crusts after fatliquoring, wet state (FIG. 9) (1 mM EDTA in water, 70 C for 0.5 hour first, vs control (no EDTA)) | reduction of surface browning (FIGS. 5-6) | reduction of browning, crusts after fatliquoring, wet state (FIG. 9) (5 mM EDTA, 70 C heating step, vs 1 mM EDTA) | reduction of browning, crusts after fatliquoring, dry state (FIG. 10) (5 mM vs 1 mM EDTA, with or without 70 C (0.5 hour) heating step) | color uniformity of mycelium sheets (EDTA treated sheets vs heat treatment with or without EDTA (FIGS. 16-18)) | browning after EDTA added at different process steps (FIG. 20A, 20B) (full sized cotton sheets, 5 mM EDTA and 16 mM NaOH after harvest and/or during plasticization, varied fat liquor solution conditions) | optimum concentration to achieve browning reduction (mycelium sheets, concentrations of EDTA and EGTA optimized) | effect of adding EDTA during tanning (D&S) (sheets previously treated with EDTA during harvest or plasticization (FIG. 18A, 18B))
1 | O=C(O)CN(CCN(CC(=O)O)CC(=O)O)CC(=O)O [EDTA, ethylenediaminetetraacetic acid] | more effective at reducing browning than a control group | achieves greater reductions in browning | even greater reductions in browning | not more effective than a lower concentration of EDTA at reducing browning | best color uniformity | observed decrease in browning | 5 mM | added whitening effect
2 | O=C(O)CN(CCOCCOCCN(CC(=O)O)CC(=O)O)CC(=O)O [EGTA, egtazic acid] | – | may be effectively applied | – | – | – | – | – | –
